US20230204594A1, “SYSTEMS AND METHODS FOR REAL-TIME CELLULAR DRUG-TARGET ENGAGEMENT” (NERD BIO LLC, priority 2021, published 2023)
pEC50, pIC50, pKd: −log10 of the molar value. Where two headings read alike, the source gives them in different places. Blank lines part the entries; values can stand above or below the compound they belong to.

Experiments:
[1] = target: T1, BCL6 Micro-tagged protein (BCL6-S-tag fusion protein) (Homo sapiens, UniProt P41182); assay: Small molecule target engagement screening on lysates, micro-tagged BCL6 heated at Tmin; assay type: binding
T1 construct: expressed in transfected cells; host or cells: HEK293, lysate (1% Triton X-100 in TBS)
Experimental: HEK293 cells were transfected using Lipofectamine 2000 according to manufacturer protocol. Two days after transfection, media was removed and cells lifted by pipetting up and down using 1×TBS. Cells were centrifuged at 400 g for 4 min. The TBS wash was removed and the cells lysed with either 1% Triton X 100 in TBS for MTH1 and BCL6, or 0.5% DDM in TBS for EGFR expressing cells. Cells were lysed at 4° C. on a rotator for 1 hour and cell debris removed by gentle centrifugation for 1 minute at 6000 rpm. Lysates were transferred to a new tube and aliquots that were not used immediately in the assay were frozen at −80° C. for future use.
Small molecule compounds were dissolved in DMSO at 10 mM and serial dilutions in DMSO at 100× concentration were prepared from this stock. Lysates from cells expressing the micro-tagged (S-peptide tagged) protein were diluted with cold 1×TBS at 1/10 and 39.6 ul aliquoted to a PCR plate; […]. The heated sample (30 ul) was added and fluorescence detected using a microplate reader. The plate was read in kinetic mode (excitation=485 nm, emission=520 nm) with the PolarStar Omega 96-well plate reader.
For analysis, the RAW fluorescence signal or fluorescence change per minute was plotted with inhibitor dose on a Semi-Log scale using GraphPad Prism. Nonlinear regression analysis was used for curve fitting to identify EC50 of target engagement or apparent KD.
After 4 minutes incubation the fluorescence detected could be plotted with dose of inhibitor tested on a semi-log scale. Using nonlinear regression analysis and fitting a Sigmoidal dose-response curve (with variable slope) using GraphPad Prism identified an EC50 of Target Engagement. […] The peak fluorescence signal identified the dose of inhibitor that saturates the micro-tag protein target. At concentrations of the inhibitor above this saturating dose there was rapid cleavage of the FRET-labeled substrate resulting in loss of fluorescence signal over time (Relative Light Unit per minute (RLU/min)) and lower fluorescence detected. At concentrations below this saturating dose the micro-tag construct was denatured in the heat challenge and there was less micro-tag available for enzyme complementation resulting in lower fluorescence signal (FIG. 36A). […].

BCL6 = BCL6 (Homo sapiens, UniProt P41182); conditions: known value, read-out: in vitro IC50, cited from earlier work

Compound: CNC(=O)COc1cc2cc(Nc3nc(N4CCC(C(=O)N(C)C)CC4)ncc3Cl)cc(OC)c2n(C)c1=O [BI-3812]
- pEC50 ([1]; HEK293 lysates, heated at Tmin, fluorescence after 4 minutes incubation, FIG. 38A, read-out: EC50 of target engagement): 9.20
- pKd ([1]; Saturation Binding Equation (One-site total), after 15 minutes, FIG. 39C, read-out: Apparent Equilibrium Dissociation Constant (apparent KD)): 8.80
- pEC50 ([1]; after 15 minutes, FIG. 39B, read-out: EC50 of target engagement after removal of data points beyond the target saturation dose): 9.05
- pIC50 (BCL6; well-characterized inhibitor): ~8.52

- binding to the BCL6 micro-tag target ([1]; HEK293 lysates, heated at Tmin, 4 minutes incubation, FIG. 38B): did not bind the target
Compound: C[C@@H]1C[C@H](C)CN(c2ncc(Cl)c(Nc3ccc4c(c3)cc(OC(C)(C)C(=O)O)c(=O)n4C)n2)C1 [BI-5273]
- pIC50 (BCL6; inactive structural analog): ~5.00
